According to ChEMBL document CHEMBL1153541 (J Med Chem, 2009):
Active and inactive are the calls of the source. The rule behind the calls is not given here.

What was measured:
[1] = tested on: Trypanosoma brucei rhodesiense; assay: Antitrypanosomal activity against blood stream form of Trypanosoma brucei rhodesiense STIB900 trypomastigotes after 70 hrs by alamar blue assay; assay type: functional, organism-based; conditions: STIB900, 70 h
[2] = tested on: Trypanosoma brucei rhodesiense; assay: Antitrypanosomal activity against Trypanosoma brucei rhodesiense STIB900 in mouse model of acute trypanosomiasis assessed as increase in survival time at 20 mg/kg administered daily for 4 days; assay type: functional, organism-based; parameters: dose 20 mg/kg
[3] = tested on: Trypanosoma brucei rhodesiense; assay: Ratio of pentamidine IC50 to compound IC50 for blood stream form of Trypanosoma brucei rhodesiense STIB900 trypomastigotes; assay type: functional
[4] = tested on: Trypanosoma brucei rhodesiense; assay: Antitrypanosomal activity against Trypanosoma brucei rhodesiense STIB900 in mouse model of acute trypanosomiasis assessed as induction of cure at 20 mg/kg administered daily for 4 days; assay type: functional, organism-based; parameters: dose 20 mg/kg
Leishmania donovani = assay: Antileishmanial activity against Leishmania donovani MHOM/SD/62/1S-CL2D axenic amastigotes after 72 hrs by tetrazolium dye-based microplate reader method; assay type: functional, organism-based
L6 = assay: Cytotoxicity against rat L6 cells after 70 hrs by alamar blue assay; assay type: cell-based; conditions: L6, 70 h
[5] = Selectivity index, ratio of IC50 for rat L6 cells to IC50 for blood stream form of Trypanosoma brucei rhodesiense STIB900 trypomastigotes; assay type: toxicity, cell-based; conditions: read-out: Ratio IC50
[6] = Selectivity index, ratio of IC50 for rat L6 cells to IC50 for Leishmania donovani MHOM/SD/62/1S-CL2D axenic amastigotes; assay type: toxicity, cell-based; conditions: read-out: Ratio IC50
[7] = Selectivity index, ratio of IC50 for rat L6 cells to IC50 for chloroquine-resistant Plasmodium falciparum K1; assay type: toxicity, cell-based; conditions: read-out: Ratio IC50
Plasmodium falciparum = assay: Antiplasmodial activity after 48 hrs against chloroquine-resistant Plasmodium falciparum K1 by [3H]hypoxanthine uptake; assay type: functional, organism-based

| Compound | IC50 [1] [µM] | Activity [2] | Ratio IC50 [3] | Activity [4] | IC50 (Leishmania donovani) [µM] | IC50 (L6) [µM] | selectivity ratio [5] | selectivity ratio [6] | selectivity ratio [7] | IC50 (Plasmodium falciparum) [µM] |
| --- | --- | --- | --- | --- | --- | --- | --- | --- | --- | --- |
| N=C(N)c1ccc(OCCCOc2ccc(-c3cc4ccc(C(=N)N)cc4o3)cc2)cc1 | 0.025 | Active | 8 | inactive | 0.78 | 8.6 |  |  |  |  |
| CC(C)NC(=N)c1ccc2oc(-c3cccc(OCCCCCCOc4ccccc4)c3)cc2c1 | 1.16 |  |  |  | 7 | 7.4 | 6 | 1 | 40 | 0.183 |
| c1ccc(OCCCCCCOc2cccc(-c3cc4cc(C5=NCCN5)ccc4o3)c2)cc1 |  |  |  |  | 1.9 |  | 26 | 1 | 51 | 0.049 |
